Measurements taken from patent publication US11976066B1 (priority 2023, dated 2024).
Values after ≈ are worked out from the molar mass of the structure shown. Like-named read-outs stand apart in the source and are kept apart here.

System: Mycobacterium tuberculosis H37Rv
Assay: Resazurin Microplate Assay (REMA), anti-tubercular activity, susceptible strain
Format: cell-based
Conditions: 192 h
[1] = H37Rv strain, 8 days incubation at 37° C, Middlebrook 7H9 broth, read-out: MIC Susceptible (H37Rv)

## CCOC(=O)c1cc(C(=O)c2ccc(F)cc2)n2ccc(N)cc12 [Compound 3a, Ethyl 7-amino-3-(4-fluorobenzoyl)indolizine-1-carboxylate]
read-out: MIC Susceptible (H37Rv), H37Rv strain, 8 days incubation at 37° C, Middlebrook 7H9 broth
  MIC: ~16 µg/mL (≈ 49 µM)

## CCOC(=O)c1cc(C(=O)c2ccccc2[N+](=O)[O-])n2ccc(N)cc12 [Compound 3b, Ethyl 7-amino-3-(2-nitrobenzoyl)indolizine-1-carboxylate]
[1]
  MIC: ~8 µg/mL (≈ 22.6 µM)

## CCOC(=O)c1cc(C(=O)c2ccc(Br)cc2)n2ccc(N)cc12 [Compound 3e, Ethyl 7-amino-3-(4-bromobenzoyl)indolizine-1-carboxylate]
[1]
  MIC: ~32 µg/mL (≈ 82.6 µM)
